# Test results as given in patent publication US20240409585A1, “MACROCYCLIC IMMUNOMODULATORS” (priority 2021, published 2024).
# Bridge positions count the residues as written; N and C are the ends. Square brackets hold non-standard residues; d marks the D form. Peptide text beside a SMILES is read from it. * marks the point of attachment. ξ: configuration not given here. Phe(4-COOH) = N[C@@H](Cc1ccc(C(=O)O)cc1)C(=O)O; Bip = N[C@@H](Cc1ccc(-c2ccccc2)cc1)C(=O)O; Phe(3-Me) = Cc1cccc(C[C@H](N)C(=O)O)c1; Phe(4-F) = N[C@@H](Cc1ccc(F)cc1)C(=O)O; Val(3-OH) = CC(C)(O)[C@H](N)C(=O)O; 4Pal = N[C@@H](Cc1ccncc1)C(=O)O; Cha = N[C@@H](CC1CCCCC1)C(=O)O; Cit = NC(=O)NCCC[C@H](N)C(=O)O; Thr(3ξ) = CC(O)[C@H](N)C(=O)O; Carboxymethyl = O=C(O)C*; NMeA = CN[C@@H](C)C(=O)O; Dab = NCC[C@H](N)C(=O)O
# Target: T1, PE-labeled human PD-L1-Ig binding to Jurkat cell line over-expressing human PD-1 (Jurkat-PD-1) (Homo sapiens, UniProt Q15116)
# T1 construct: expressed in transfected cells; host or cells: Jurkat
# T1 sequence (Q15116 25-288): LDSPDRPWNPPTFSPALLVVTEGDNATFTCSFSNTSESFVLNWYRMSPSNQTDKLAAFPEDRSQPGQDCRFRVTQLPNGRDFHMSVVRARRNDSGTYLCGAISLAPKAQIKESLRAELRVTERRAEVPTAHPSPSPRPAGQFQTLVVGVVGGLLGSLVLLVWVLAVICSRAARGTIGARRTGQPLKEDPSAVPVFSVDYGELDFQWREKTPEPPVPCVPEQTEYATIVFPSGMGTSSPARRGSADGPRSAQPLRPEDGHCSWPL
# Assay: Jurkat-PD-1 Cell Binding High-Content Screening Assay (CBA): Method 1
# Settings: Jurkat-hPD-1 cells, PE-labeled PD-L1-Ig 20 nM final; read-out: Jurkat HPDL1 PD1 IC50 (uM) (Method 1)
row,IC50,Structure (SMILES)
1,0.02 µM,Cc1cccc(C[C@@H]2NC(=O)[C@H](CC(=O)O)NC(=O)[C@H](Cc3ccc(OCC(=O)O)cc3)NC(=O)[C@H](Cc3ccncc3)NC(=O)CSC[C@@H](C(=O)N[C@@H](CCN)C(N)=O)NC(=O)[C@H](CCC(=O)O)NC(=O)[C@H](C(C)(C)O)NC(=O)[C@H](CC3CCCCC3)NC(=O)[C@H](CCN)NC(=O)[C@@H](CC(C)C)NC(=O)[C@H](C)N(C)C(=O)[C@H](Cc3ccc(OCC(=O)O)cc3)NC(=O)[C@H](Cc3ccc(-c4ccccc4)cc3)NC(=O)[C@H](Cc3ccc(OCC(=O)O)cc3)NC2=O)c1 [Compound 2188] ({CH2CO}-[4Pal]Y(Carboxymethyl)D[Phe(3-Me)]Y(Carboxymethyl)[Bip]Y(Carboxymethyl)[NMeA][dL][Dab][Cha][Val(3-OH)]EC[Dab]-NH2; thioether N-14)
2,0.03 µM,Cc1cccc(C[C@@H]2NC(=O)[C@H](CC(=O)O)NC(=O)[C@H](Cc3ccc(OCC(=O)O)cc3)NC(=O)[C@H](Cc3ccncc3)NC(=O)CSC[C@@H](C(=O)N[C@@H](CCN)C(N)=O)NC(=O)[C@H](CCC(=O)O)NC(=O)[C@H](C(C)(C)O)NC(=O)[C@H](CC3CCCCC3)NC(=O)[C@H](CCN)NC(=O)[C@@H](CC(C)C)NC(=O)[C@H](C)N(C)C(=O)[C@H](Cc3ccc(OCC(=O)O)cc3)NC(=O)[C@H](Cc3ccc(-c4ccccc4)cc3)NC(=O)[C@H](Cc3ccc(C(=O)O)cc3)NC2=O)c1 [Compound 2189] ({CH2CO}-[4Pal]Y(Carboxymethyl)D[Phe(3-Me)][Phe(4-COOH)][Bip]Y(Carboxymethyl)[NMeA][dL][Dab][Cha][Val(3-OH)]EC[Dab]-NH2; thioether N-14)
3,0.03 µM,Cc1cccc(C[C@@H]2NC(=O)[C@H](CC(=O)O)NC(=O)[C@H](Cc3ccc(OCC(=O)O)cc3)NC(=O)[C@H](Cc3ccncc3)NC(=O)CSC[C@@H](C(=O)N[C@@H](CCN)C(N)=O)NC(=O)[C@H](CC(=O)O)NC(=O)[C@H](C(C)(C)O)NC(=O)[C@H](CC3CCCCC3)NC(=O)[C@H](CCN)NC(=O)[C@@H](CC(C)C)NC(=O)[C@H](C)N(C)C(=O)[C@H](Cc3ccc(OCC(=O)O)cc3)NC(=O)[C@H](Cc3ccc(-c4ccccc4)cc3)NC(=O)[C@H](Cc3ccc(OCC(=O)O)cc3)NC2=O)c1 [Compound 2190] ({CH2CO}-[4Pal]Y(Carboxymethyl)D[Phe(3-Me)]Y(Carboxymethyl)[Bip]Y(Carboxymethyl)[NMeA][dL][Dab][Cha][Val(3-OH)]DC[Dab]-NH2; thioether N-14)
4,0.03 µM,Cc1cccc(C[C@@H]2NC(=O)[C@H](CC(=O)O)NC(=O)[C@H](Cc3ccc(OCC(=O)O)cc3)NC(=O)[C@H](Cc3ccncc3)NC(=O)CSC[C@@H](C(=O)N[C@@H](CCN)C(N)=O)NC(=O)[C@H](CC(N)=O)NC(=O)[C@H](C(C)(C)O)NC(=O)[C@H](CC3CCCCC3)NC(=O)[C@H](CCN)NC(=O)[C@@H](CC(C)C)NC(=O)[C@H](C)N(C)C(=O)[C@H](Cc3ccc(OCC(=O)O)cc3)NC(=O)[C@H](Cc3ccc(-c4ccccc4)cc3)NC(=O)[C@H](Cc3ccc(OCC(=O)O)cc3)NC2=O)c1 [Compound 2191] ({CH2CO}-[4Pal]Y(Carboxymethyl)D[Phe(3-Me)]Y(Carboxymethyl)[Bip]Y(Carboxymethyl)[NMeA][dL][Dab][Cha][Val(3-OH)]NC[Dab]-NH2; thioether N-14)
5,0.02 µM,Cc1cccc(C[C@@H]2NC(=O)[C@H](CC(=O)O)NC(=O)[C@H](Cc3ccc(OCC(=O)O)cc3)NC(=O)[C@H](Cc3ccncc3)NC(=O)CSC[C@@H](C(=O)N[C@@H](CCN)C(N)=O)NC(=O)[C@H](CCC(N)=O)NC(=O)[C@H](C(C)(C)O)NC(=O)[C@H](CC3CCCCC3)NC(=O)[C@H](CCN)NC(=O)[C@@H](CC(C)C)NC(=O)[C@H](C)N(C)C(=O)[C@H](Cc3ccc(OCC(=O)O)cc3)NC(=O)[C@H](Cc3ccc(-c4ccccc4)cc3)NC(=O)[C@H](Cc3ccc(OCC(=O)O)cc3)NC2=O)c1 [Compound 2192] ({CH2CO}-[4Pal]Y(Carboxymethyl)D[Phe(3-Me)]Y(Carboxymethyl)[Bip]Y(Carboxymethyl)[NMeA][dL][Dab][Cha][Val(3-OH)]QC[Dab]-NH2; thioether N-14)
6,0.01 µM,Cc1cccc(C[C@@H]2NC(=O)[C@H](CC(=O)O)NC(=O)[C@H](Cc3ccc(OCC(=O)O)cc3)NC(=O)[C@H](Cc3ccncc3)NC(=O)CSC[C@@H](C(=O)N[C@@H](CCN)C(N)=O)NC(=O)[C@H](CCC(=O)O)NC(=O)[C@H](C(C)C)NC(=O)[C@H](CC3CCCCC3)NC(=O)[C@H](CCN)NC(=O)[C@@H](CC(C)C)NC(=O)[C@H](C)N(C)C(=O)[C@H](Cc3ccc(OCC(=O)O)cc3)NC(=O)[C@H](Cc3ccc(-c4ccccc4)cc3)NC(=O)[C@H](Cc3ccc(C(=O)O)cc3)NC2=O)c1 [Compound 2193] ({CH2CO}-[4Pal]Y(Carboxymethyl)D[Phe(3-Me)][Phe(4-COOH)][Bip]Y(Carboxymethyl)[NMeA][dL][Dab][Cha]VEC[Dab]-NH2; thioether N-14)
7,0.26 µM,Cc1cccc(C[C@@H]2NC(=O)[C@H](CC(=O)O)NC(=O)[C@H](Cc3ccc(C(=O)O)cc3)NC(=O)[C@H](Cc3ccncc3)NC(=O)CSC[C@@H](C(=O)N[C@@H](CO)C(N)=O)NC(=O)[C@H](CCC(=O)O)NC(=O)[C@H](C(C)(C)O)NC(=O)[C@H](CC3CCCCC3)NC(=O)[C@H](CCN)NC(=O)[C@@H](CC(C)C)NC(=O)[C@H](C)N(C)C(=O)[C@H](Cc3ccc(OCC(=O)O)cc3)NC(=O)[C@H](Cc3ccc(-c4ccccc4)cc3)NC(=O)[C@H](Cc3ccc(OCC(=O)O)cc3)NC2=O)c1 [Compound 2194] ({CH2CO}-[4Pal][Phe(4-COOH)]D[Phe(3-Me)]Y(Carboxymethyl)[Bip]Y(Carboxymethyl)[NMeA][dL][Dab][Cha][Val(3-OH)]ECS-NH2; thioether N-14)
8,0.08 µM,Cc1cccc(C[C@@H]2NC(=O)[C@H](CC(=O)O)NC(=O)[C@H](Cc3ccc(C(=O)O)cc3)NC(=O)[C@H](Cc3ccncc3)NC(=O)CSC[C@@H](C(=O)N[C@@H](CO)C(N)=O)NC(=O)[C@H](CCC(=O)O)NC(=O)[C@H](C(C)(C)O)NC(=O)[C@H](CC3CCCCC3)NC(=O)[C@H](CCN)NC(=O)[C@@H](CC(C)C)NC(=O)[C@H](C)N(C)C(=O)[C@H](Cc3ccc(OCC(=O)O)cc3)NC(=O)[C@H](Cc3ccc(-c4ccccc4)cc3)NC(=O)[C@H](Cc3ccc(C(=O)O)cc3)NC2=O)c1 [Compound 2195] ({CH2CO}-[4Pal][Phe(4-COOH)]D[Phe(3-Me)][Phe(4-COOH)][Bip]Y(Carboxymethyl)[NMeA][dL][Dab][Cha][Val(3-OH)]ECS-NH2; thioether N-14)
9,0.02 µM,Cc1cccc(C[C@@H]2NC(=O)[C@H](CC(=O)O)NC(=O)[C@H](Cc3ccc(OCC(=O)O)cc3)NC(=O)[C@H](Cc3ccncc3)NC(=O)CSC[C@@H](C(=O)N[C@@H](CCN)C(N)=O)NC(=O)[C@H](CCC(=O)O)NC(=O)[C@H](C(C)(C)O)NC(=O)[C@H](CC3CCCCC3)NC(=O)[C@H](CCN)NC(=O)[C@@H](CC(C)C)NC(=O)[C@H](C)N(C)C(=O)[C@H](Cc3ccc(C(=O)O)cc3)NC(=O)[C@H](Cc3ccc(-c4ccccc4)cc3)NC(=O)[C@H](Cc3ccc(C(=O)O)cc3)NC2=O)c1 [Compound 2196] ({CH2CO}-[4Pal]Y(Carboxymethyl)D[Phe(3-Me)][Phe(4-COOH)][Bip][Phe(4-COOH)][NMeA][dL][Dab][Cha][Val(3-OH)]EC[Dab]-NH2; thioether N-14)
10,0.11 µM,CC(C)C[C@H]1NC(=O)[C@H](C)N(C)C(=O)[C@H](Cc2ccc(C(=O)O)cc2)NC(=O)[C@H](Cc2ccc(-c3ccccc3)cc2)NC(=O)[C@H](CCC(N)=O)NC(=O)[C@H](Cc2c[nH]c3ccccc23)NC(=O)[C@H](CC(=O)O)NC(=O)[C@H](Cc2ccc(OCC(=O)O)cc2)NC(=O)[C@H](Cc2ccc(OCC(=O)O)cc2)NC(=O)CSC[C@@H](C(=O)N[C@@H](CO)C(N)=O)NC(=O)[C@H](CCC(=O)O)NC(=O)[C@H](C(C)(C)O)NC(=O)[C@H](CC2CCCCC2)NC(=O)[C@H](CCN)NC1=O [Compound 2198] ({CH2CO}-Y(Carboxymethyl)Y(Carboxymethyl)DWQ[Bip][Phe(4-COOH)][NMeA][dL][Dab][Cha][Val(3-OH)]ECS-NH2; thioether N-14)
11,0.01 µM,Cc1cccc(C[C@@H]2NC(=O)[C@H](CC(=O)O)NC(=O)[C@H](Cc3ccc(OCC(=O)O)cc3)NC(=O)[C@H](Cc3ccc(F)cc3)NC(=O)CSC[C@@H](C(=O)N[C@@H](CCN)C(N)=O)NC(=O)[C@H](CCC(=O)O)NC(=O)[C@H](C(C)(C)O)NC(=O)[C@H](CC3CCCCC3)NC(=O)[C@H](CCN)NC(=O)[C@@H](CC(C)C)NC(=O)[C@H](C)N(C)C(=O)[C@H](Cc3ccc(OCC(=O)O)cc3)NC(=O)[C@H](Cc3ccc(-c4ccccc4)cc3)NC(=O)[C@H](Cc3ccc(OCC(=O)O)cc3)NC2=O)c1 [Compound 2200] ({CH2CO}-[Phe(4-F)]Y(Carboxymethyl)D[Phe(3-Me)]Y(Carboxymethyl)[Bip]Y(Carboxymethyl)[NMeA][dL][Dab][Cha][Val(3-OH)]EC[Dab]-NH2; thioether N-14)
12,0.01 µM,Cc1cccc(C[C@@H]2NC(=O)[C@H](CC(=O)O)NC(=O)[C@H](Cc3ccc(OCC(=O)O)cc3)NC(=O)[C@H](Cc3ccncc3)NC(=O)CSC[C@@H](C(=O)N[C@@H](CCN)C(N)=O)NC(=O)[C@H](CO)NC(=O)[C@H](C(C)(C)O)NC(=O)[C@H](CC3CCCCC3)NC(=O)[C@H](CCN)NC(=O)[C@@H](CC(C)C)NC(=O)[C@H](C)N(C)C(=O)[C@H](CCCNC(N)=O)NC(=O)[C@H](Cc3ccc(-c4ccccc4)cc3)NC(=O)[C@H](Cc3ccc(OCC(=O)O)cc3)NC2=O)c1 [Compound 2201] ({CH2CO}-[4Pal]Y(Carboxymethyl)D[Phe(3-Me)]Y(Carboxymethyl)[Bip][Cit][NMeA][dL][Dab][Cha][Val(3-OH)]SC[Dab]-NH2; thioether N-14)
13,0.5 µM,Cc1cccc(C[C@@H]2NC(=O)[C@H](CC(=O)O)NC(=O)[C@H](Cc3ccc(C(=O)O)cc3)NC(=O)[C@H](C(C)O)NC(=O)CSC[C@@H](C(=O)N[C@H](C(N)=O)C(C)(C)O)NC(=O)[C@H](CO)NC(=O)[C@H](C(C)(C)O)NC(=O)[C@H](CC3CCCCC3)NC(=O)[C@H](CCN)NC(=O)[C@@H](CC(C)C)NC(=O)[C@H](C)N(C)C(=O)[C@H](Cc3ccc(OCC(=O)O)cc3)NC(=O)[C@H](Cc3ccc(-c4ccccc4)cc3)NC(=O)[C@H](Cc3ccc(OCC(=O)O)cc3)NC2=O)c1 (stereo partly drawn) [Compound 2202] ({CH2CO}-[Thr(3ξ)][Phe(4-COOH)]D[Phe(3-Me)]Y(Carboxymethyl)[Bip]Y(Carboxymethyl)[NMeA][dL][Dab][Cha][Val(3-OH)]SC[Val(3-OH)]-NH2; thioether N-14)
